Assay results published in US4661516A, “Diaminocyclohexane platinum complexes” (Research Corporation, priority 1984, dated 1987).
Where “and” joins values, the source holds several entries; their conditions need not be identical. Identical values can stand only once.

Columns and labels:
[1] = system: L1210 leukemia cells (L1210/PDD); experiment: In vitro cytotoxicity / cross-resistance, L1210/PDD (L1210/DDP) cells resistant to cisdiamminedichloroplatinum(II); type: cell-based; details: for ID50 L1210/DDP: Tables VII and VIII, 5760 min; for ID50 L1210/PDD: 96 hours
Method: Four ml of cell suspension were added to culture tubes and the appropriate concentration (0.01, 0.1, 1 or 10 μg/ml final drug concentration) was added. After 96 hours the cell concentration of control and experimental cultures were calculated with the aid of a Coulter Counter® Model ZBf and the percent inhibition calculated.

[2] = system: Wild type L1210 leukemic cells; experiment: In vitro cytotoxicity, wild type L1210 leukemic cells (L1210/0); type: cell-based; details: for ID50: L1210, 72 hours incubation
Method: Four ml of cell suspension (10^5 cells/ml) are added to culture tubes and the appropriate concentration (0.01, 0.1, 1 or 10 μg/ml final concentration) of drug added to the culture tubes. After 72 hours of incubation, the cell concentration of control and experimental cultures are determined with the aid of a Coulter Counter® Model ZBf and the percent inhibition calculated. […]

L1210 cells = experiment: In vivo anti-tumor activity, L1210, single i.p. injection; design: species or system BDF1 mice
Method: About 24 hours after inoculation of the cells, the mice were injected intraperitoneally with varying dosages of complexes of the present invention. […] Long term survival signifies that animals were alive 60 days after inoculation with L1210 cells.

L1210/0 leukemia cells = experiment: In vivo anti-tumor activity, L1210 (L1210/0), multiple i.p. doses; design: species or system BDF1 mice
Method: BDF1 mice were inoculated intraperitoneally with 10^6 L1210 cells. About 24 hours after inoculation of the cells, the mice were injected intraperitoneally with varying dosages of complexes of the present invention. Six mice were used for each dosage level in each experiment with an equal number of control mice inoculated with 10^6 L1210 cells and left untreated with a given complex. The results [%T/C=(survival time of treated animals/survival time of control animals)×100] are set forth below. Long term survival signifies that animals were alive 60 days after inoculation with L1210 cells.
The procedure of Example 16 was repeated except that the treated animals were injected with multiple doses of the complex as indicated below:
The anti-tumor activity of compound number 3 was evaluated against cells sensitive to (L1210/0) and resistant to (L1210/PDD) the standard platinum complex cis-diamminedichloroplatinum(II).
The following complexes were tested in vivo oncolytic activity following 3 i.p. injections (days 1, 5, 9) according to the protocol described in Examples 16 and 17.
BDF1 mice were innoculated intraperitoreally with 10^6 L1210 leukemia cells and treatment was begun on the next day (day 1). Two treatment schedules, i.e. single i.p. injection of the drug and i.p. injections on days 1, 5 and 9 according to the protocol described in Examples 16 and 17 were used.

Male albino mice = experiment: Acute toxicity, single intraperitoneal injection (Example 19); type: in vivo; details: single i.p.; for Calculated LD10 / Calculated LD50 / Calculated LD90: 14 days
Method: Fourteen days after treatment all surviving mice were sacrified and the LD10, LD50 and LD90 were calculated.

B16 cells = experiment: Melanotic melanoma test, i.p. inoculated B16 melanoma; type: in vivo, BDF1 mice
Method: The animals used were BDF1 mice, all of the same sex, weighing a minimum of 18 g. and all within a 4 g. weight range. There were 6 animals per test group. […] The test compounds were administered intraperitoneally on days 1, 5 and 9 at various doses. The animals were weighed and survivors were recorded on a regular basis for 60 days. The median survival time and the ratio of survival time for treated (T)/control (C) animals were calculated. […] The criterion for efficacy is T/C×100≥125%.

SMILES: NC1CCCCC1N.O=C1OC(C(O)CO)C([O-])=C1O.O=C1OC(C(O)CO)C([O-])=C1O.[Pt+2] (mixture of isomers) [Compound 7, cis-bis-isoascorbato(DACH)Pt(II).3H2 O]
- ID50 L1210/DDP [1]: 3.8 mg/L
- ID50 ([2]; 4320 min): 4.1 mg/L
- % T/C (L1210 cells; single i.p., 25 mg/kg): 132%
- % T/C (L1210 cells; single i.p., 50 mg/kg): 136%
- % T/C (L1210 cells; single i.p., 100 mg/kg): 196%
- animals died of apparent drug toxicity (L1210 cells; single i.p., 100 mg/kg): 2/6
- Long Term Survivors (L1210 cells; single i.p., 100 mg/kg, alive 60 days after inoculation): 1/6
- % T/C (L1210/0 leukemia cells; 12.5 mg/kg, days 1,5,9): 151%
- % T/C (L1210/0 leukemia cells; 25 mg/kg, days 1,5,9): 179%
- % T/C (L1210/0 leukemia cells; 50 mg/kg, days 1,5,9): 212%

SMILES: N[C@@H]1CCCC[C@H]1N.O=C1O[C@H]([C@@H](O)CO)C([O-])=C1O.O=C1O[C@H]([C@@H](O)CO)C([O-])=C1O.[Pt+2] [Compound 4, cis-bis-ascorbato(trans-R,R--DACH)Pt(II).3H2 O]
- ID50 L1210/PDD [1]: 0.4 mg/L
- ID50 [2]: 1.9 mg/L
- % T/C (L1210 cells; single i.p., 25 mg/kg): 128%
- % T/C (L1210 cells; single i.p., 50 mg/kg): 184%
- Long Term Survivors (LTS) (L1210 cells; single i.p., 50 mg/kg, alive 60 days after inoculation): 1/6
- % T/C (L1210/0 leukemia cells; 25 mg/kg, days 1,5,9): 218%
- % T/C (L1210/0 leukemia cells; 50 mg/kg, days 1,5,9): 144%

SMILES: N[C@H]1CCCC[C@@H]1N.O=C1O[C@H]([C@@H](O)CO)C([O-])=C1O.O=C1O[C@H]([C@@H](O)CO)C([O-])=C1O.[Pt+2] [Compound 5, cis-bis-ascorbato(trans-S,S--DACH)Pt(II).2H2 O]
- ID50 L1210/PDD [1]: 2.3 mg/L
- ID50 [2]: 4.4 mg/L
- DEATHS/TREATED (Male albino mice; 60 mg/kg): 0/6
- DEATHS/TREATED (Male albino mice; 80 mg/kg): 2/6
- DEATHS/TREATED (Male albino mice; 100 mg/kg): 5/6
- DEATHS/TREATED (Male albino mice; 125 mg/kg): 6/6
- DEATHS/TREATED (Male albino mice; 160 mg/kg): 5/6
- Calculated LD10 (Male albino mice): 70 mg/kg
- Calculated LD50 (Male albino mice): 90 mg/kg
- Calculated LD90 (Male albino mice): 125 mg/kg
- % T/C (L1210 cells; single i.p., 25 mg/kg): 136%
- % T/C (L1210 cells; single i.p., 50 mg/kg): Toxic

SMILES: NC1CCCCC1N.O=C1O[C@H]([C@@H](O)C(=O)[O-])[C@H](O)[C@H]1O.O=C1O[C@H]([C@@H](O)C(=O)[O-])[C@H](O)[C@H]1O.[Pt+2] [Compound 9, cis-bis-D-saccharato-1,4-lactone(DACH)Pt(II)]
- ID50 L1210/PDD [1]: 0.6 mg/L
- ID50 [2]: 3.0 mg/L
- DEATHS/TREATED (Male albino mice; 85 mg/kg): 0/6
- DEATHS/TREATED (Male albino mice; 100 mg/kg): 0/6
- DEATHS/TREATED (Male albino mice; 125 mg/kg): 3/6
- DEATHS/TREATED (Male albino mice; 158 mg/kg): 5/6
- DEATHS/TREATED (Male albino mice; 200 mg/kg): 4/6
- Calculated LD10 (Male albino mice): 100 mg/kg
- Calculated LD50 (Male albino mice): 140 mg/kg
- Calculated LD90 (Male albino mice): 185 mg/kg
- % T/C (L1210 cells; single i.p., 12.5 mg/kg): 127%
- % T/C (L1210 cells; single i.p., 25 mg/kg): 138%
- % T/C (L1210 cells; single i.p., 50 mg/kg): 156%
- % T/C (L1210 cells; single i.p., 100 mg/kg): Toxic

SMILES: NC1CCCCC1N.O=C([O-])C1CCCN1.O=C([O-])C1CCCN1.[Pt+2] [Compound 16, cis-bis-L-prolinato(DACH)Pt(II)]
- ID50 L1210/DDP [1]: 2.5 mg/L
- ID50 [2]: 4.0 mg/L
- % T/C (L1210 cells; single i.p., 12.5 mg/kg): 144%
- % T/C (L1210 cells; single i.p., 25 mg/kg): 165%
- % T/C (L1210 cells; single i.p., 50 mg/kg): 165%
- % T/C (L1210 cells; single i.p., 100 mg/kg): 162%
- animals died of apparent drug toxicity (L1210 cells; single i.p., 100 mg/kg): 1 animals

SMILES: NC(=O)CN(CC(=O)[O-])CC(=O)[O-].NC1CCCCC1N.[Pt+2] [Compound 42, N--(2-Acetamido)-iminodiacetato(DACH)Pt(II).1/2H2 O]
- ID50 L1210/DDP [1]: 1.8 mg/L
- ID50 [2]: 0.7 mg/L
- ID50 L1210/0 ([2]; L1210/0, protocol of Example 14, Tables VII and VIII, 4320 min): 3.0 mg/L

SMILES: N.N.[Cl][Pt][Cl] [DDP, diamminedichloroplatinum II, reference compound]
- ID50 L1210/PDD [1]: 5.5 mg/L
- ID50 L1210/0 ([2]; L1210/0, Example 15 table, 4320 min): 0.1 mg/L
- Maximal Effective Dose (L1210 cells; Table IX, single i.p. injection): 9 mg/kg
- % T/C (L1210 cells; Table IX, single i.p., at maximal effective dose): 150%
- Long Term Survivors (L1210/0 leukemia cells; Tables X and XI, days 1, 5 and 9, at maximal effective dose, alive 60 days after tumor inoculation): 1/6
- Maximal Effective Dose (L1210/0 leukemia cells; Tables X and XI, i.p. on days 1, 5 and 9): 5 mg/kg
- % T/C (L1210/0 leukemia cells; Tables X and XI, i.p. on days 1, 5 and 9, at maximal effective dose): 210% and 220%
- Maximal Effective Dose (B16 cells; B16, i.p. days 1, 5 and 9): 5 mg/kg
- % T/C (B16 cells; B16, i.p. days 1, 5 and 9, at maximal effective dose): 172%
- Long Term Survivors (B16 cells; B16, i.p. days 1, 5 and 9, at maximal effective dose, 60 days): 1/6
